The conditions of series [1]: chelating agent for ^68Ga; cited from earlier work.
The target in another series is PSMA (Homo sapiens, UniProt Q04609). Description: PSMA inhibition assay. The conditions noted are these: LNCaP cell lysates, 4 µM NAAG, Cheng-Prusoff conversion. Format: biochemical.

pKi: −log10 of the molar value.

Chain of PSMA (Q04609 whole entry): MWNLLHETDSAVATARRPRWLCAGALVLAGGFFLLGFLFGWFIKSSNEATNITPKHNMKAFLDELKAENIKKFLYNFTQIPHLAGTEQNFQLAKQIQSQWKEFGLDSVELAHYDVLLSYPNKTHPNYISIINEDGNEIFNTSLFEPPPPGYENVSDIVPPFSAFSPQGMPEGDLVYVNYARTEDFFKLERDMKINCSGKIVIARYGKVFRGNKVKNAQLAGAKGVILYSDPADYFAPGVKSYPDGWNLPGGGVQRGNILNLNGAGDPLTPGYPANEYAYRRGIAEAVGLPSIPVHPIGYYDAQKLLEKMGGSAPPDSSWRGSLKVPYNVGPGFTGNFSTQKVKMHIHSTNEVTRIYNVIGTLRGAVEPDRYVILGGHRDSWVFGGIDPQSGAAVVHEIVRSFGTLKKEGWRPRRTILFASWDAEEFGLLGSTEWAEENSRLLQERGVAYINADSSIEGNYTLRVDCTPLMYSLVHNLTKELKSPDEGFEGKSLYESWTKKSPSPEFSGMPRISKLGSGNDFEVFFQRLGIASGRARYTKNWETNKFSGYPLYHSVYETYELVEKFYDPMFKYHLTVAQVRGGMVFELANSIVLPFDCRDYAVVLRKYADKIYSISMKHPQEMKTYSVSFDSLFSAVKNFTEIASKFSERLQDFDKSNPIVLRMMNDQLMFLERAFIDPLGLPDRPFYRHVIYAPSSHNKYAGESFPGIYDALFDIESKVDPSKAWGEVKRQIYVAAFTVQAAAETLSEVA

As to `O=C(O)CN1CCN(CC(=O)O)CCN(CC(=O)O)CCN(CC(=O)O)CC1` [DOTA], the “stability constant, KML” value in series [1] was 21.3.
Turning to `O=C(O)CN1CCN(CC(=O)O)CCN(CC(=O)O)CC1` [NOTA, 1,4,7-triazacyclononane-1,4,7-triacetic acid], the “stability constant, KML” value in series [1] was 31.1.
Regarding `O=C(O)CCc1ccc(O)c(CN(CCN(CC(=O)O)Cc2cc(CCC(=O)NCCCCCC(=O)NCCCC[C@H](NC(=O)N[C@@H](CCC(=O)O)C(=O)O)C(=O)O)ccc2O)CC(=O)O)c1` [DKFZ-PSMA-11, Glu-urea-Lys-(Ahx)-HBED-CC], the negative-log Ki (pKi) (in general, −log10 of the Ki, conventionally taken in molar units) at PSMA is 10.52.

(Values after article PMC5290997 (Bioconjugate chemistry, 2016).)
